Experiments:
[1] = biological target: T1, Corticotropin-releasing factor receptor 1 (Homo sapiens, UniProt P34998); assay: Inhibition of [125I]CRF binding to human Corticotropin releasing factor receptor 1 tested at 6-12 doses
T1 sequence (P34998 whole entry): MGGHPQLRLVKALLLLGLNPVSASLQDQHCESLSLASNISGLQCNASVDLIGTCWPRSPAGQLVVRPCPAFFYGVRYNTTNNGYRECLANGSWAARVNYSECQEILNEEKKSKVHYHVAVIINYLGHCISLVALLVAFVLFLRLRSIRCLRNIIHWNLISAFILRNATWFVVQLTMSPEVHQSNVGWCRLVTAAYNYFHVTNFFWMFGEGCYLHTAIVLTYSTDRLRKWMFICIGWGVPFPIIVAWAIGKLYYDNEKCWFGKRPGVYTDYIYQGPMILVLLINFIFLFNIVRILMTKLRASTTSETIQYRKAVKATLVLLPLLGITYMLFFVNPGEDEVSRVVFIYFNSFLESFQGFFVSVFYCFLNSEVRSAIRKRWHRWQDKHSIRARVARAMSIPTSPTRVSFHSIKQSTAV

Homo sapiens = species on record: Homo sapiens; assay: Compound was evaluated for the inhibition of CRF-stimulated cyclic adenosine monophosphate production; type: functional, organism-based

SMILES	Ki [1] [nM]	IC50 (Homo sapiens) [nM]
CCCN(CC1CC1)c1nc(C)nc(Nc2c(Cl)cc(Cl)cc2Cl)c1CC	3.8	–
CCCN(CC1CC1)c1cc(Nc2c(Cl)cc(Cl)cc2Cl)ncn1	> 10000	–
CCCN(CC1CC1)c1nc(C)nc(Nc2c(Cl)cc(Cl)cc2Cl)c1C	2.3	–
CCCN(CC1CC1)c1cc(C)nc(Nc2c(Cl)cc(Cl)cc2Cl)n1	70	–
CCCN(CC1CC1)c1cc(Nc2c(Cl)cc(Cl)cc2Cl)nc(C)n1	30	3700
CCCN(CC1CC1)c1nc(C)cc(Nc2c(Cl)cc(Cl)cc2Cl)n1	> 10000	–
CCCN(CC1CC1)c1nc(C)nc(Nc2c(Cl)cc(Cl)cc2Cl)c1Br	2	–
CCCN(CC1CC1)c1nc(C)nc(N(C)c2c(Cl)cc(Cl)cc2Cl)c1C	150	–
CCCN(CCC)c1nc(C)nc(Nc2c(Cl)cc(Cl)cc2Cl)c1C	2.5	250
CCCN(CC1CC1)c1nc(C)nc(Nc2c(Cl)cc(Cl)cc2Cl)c1Cl	1.7	100

From ChEMBL document CHEMBL1129375, “Design and synthesis of a series of non-peptide high-affinity human corticotropin-releasing factor1 receptor antagonists” (J Med Chem, 1996)
